For two compounds, Kd results are on record in paper PMC5793714, “Functional implications of corticosteroid-binding globulin N-glycosylation” (Journal of Molecular Endocrinology, 2017).

Test [1] addresses T1, human CBG (corticosteroid-binding globulin, SERPINA6) (Homo sapiens, UniProt P08185).
T1 construct: full-length cDNA in pRc/CMV, secreted mature N-glycosylated protein from stably transfected CHO-S cells (also Lec1 and Lec2 lines), semi-purified by HiTrap QFF FPLC or concentrated medium; no tag told
T1 sequence (P08185 23-405): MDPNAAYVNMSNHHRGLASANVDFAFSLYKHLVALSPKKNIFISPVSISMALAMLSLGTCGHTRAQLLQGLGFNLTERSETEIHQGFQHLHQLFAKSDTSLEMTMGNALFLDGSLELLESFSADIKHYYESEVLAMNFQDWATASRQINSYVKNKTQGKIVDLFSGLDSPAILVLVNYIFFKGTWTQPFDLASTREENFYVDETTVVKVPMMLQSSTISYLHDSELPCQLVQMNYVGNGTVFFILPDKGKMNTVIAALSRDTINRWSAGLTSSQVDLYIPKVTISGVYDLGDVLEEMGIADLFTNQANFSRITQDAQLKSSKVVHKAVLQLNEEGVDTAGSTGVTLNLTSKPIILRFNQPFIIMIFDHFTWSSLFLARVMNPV
As to the kind of experiment: saturation binding, dextran-coated charcoal, Scatchard.

In test [2] the target is T2, rat CBG (Rattus norvegicus, UniProt P31211).
T2 construct: gene Serpina6; full-length cDNA in pcDNA3, secreted mature N-glycosylated protein from stably transfected CHO-S cells (also Lec1 and Lec2 lines), FPLC semi-purified or concentrated medium; no tag told
T2 sequence (P31211 23-396): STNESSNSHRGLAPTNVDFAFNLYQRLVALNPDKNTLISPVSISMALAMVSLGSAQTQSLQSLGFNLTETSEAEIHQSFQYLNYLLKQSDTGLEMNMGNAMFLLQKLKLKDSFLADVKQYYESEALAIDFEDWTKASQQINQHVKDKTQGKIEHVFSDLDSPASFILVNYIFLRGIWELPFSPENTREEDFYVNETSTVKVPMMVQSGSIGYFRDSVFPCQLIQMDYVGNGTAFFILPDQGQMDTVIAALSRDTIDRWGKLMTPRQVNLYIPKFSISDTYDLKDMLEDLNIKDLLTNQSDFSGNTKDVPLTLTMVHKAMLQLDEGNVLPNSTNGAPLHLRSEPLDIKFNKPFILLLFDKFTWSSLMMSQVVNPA
The test is described as above.

pKd: −log10 of the molar value.

As for `C[C@]12CCC(=O)C=C1CC[C@@H]1[C@@H]2[C@@H](O)C[C@@]2(C)[C@H]1CC[C@]2(O)C(=O)CO` [cortisol], in test [1], the negative logarithm of the Kd (pKd) (in general, the negative decadic logarithm of the Kd, by convention in mol/L) is 8.96.

Regarding `C[C@]12C[C@H](O)[C@H]3[C@@H](CCC4=CC(=O)CC[C@@]43C)[C@@H]1CC[C@@H]2C(=O)CO` [corticosterone], in test [2], the pKd was 8.68.
